Assay results: BindingDB's records for doi:10.1002/cbic.201600655 (University At Albany, 2017)

Biological target: NAD-dependent protein deacylase sirtuin-6 (Homo sapiens, UniProt Q8N6T7)
Test: Fluorimetric Assay
Experimental: Inhibitory constants (Ki) and IC50 values were determined under saturating substrate conditions by using a fluorimetric assay (components were purchased separately). […] Sirtuin deacetylation of the substrate renders the fluorophore-substrate bond susceptible to treatment with […]. Trypsin cleavage releases the fluorophore, resulting in an increase in fluorescence. Fluorescence intensity was measured on a Synergy HT Multi-Mode microplate fluorescence reader.

Sequence of NAD-dependent protein deacylase sirtuin-6 (Q8N6T7 whole entry): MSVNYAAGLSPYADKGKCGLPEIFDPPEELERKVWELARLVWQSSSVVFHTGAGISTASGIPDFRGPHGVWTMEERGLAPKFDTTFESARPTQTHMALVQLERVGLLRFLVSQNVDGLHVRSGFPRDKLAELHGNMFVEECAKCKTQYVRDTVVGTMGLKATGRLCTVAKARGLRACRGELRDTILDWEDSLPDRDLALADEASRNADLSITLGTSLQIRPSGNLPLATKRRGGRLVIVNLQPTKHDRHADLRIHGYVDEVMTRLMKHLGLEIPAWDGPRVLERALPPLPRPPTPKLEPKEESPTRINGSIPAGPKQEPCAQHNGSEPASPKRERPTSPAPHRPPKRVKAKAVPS

SMILES	IC50
O=C(O)c1cnccn1	927 µM
NC(=O)c1cnccn1 [Pyrazinamide]	417 µM
